Usually IC50 stands for the midpoint of a concentration-inhibition curve.

SMILES strings stand for the structures.

The target of one experiment is T1, Human Factor XIIa (Homo sapiens, UniProt P00748).
T1 construct: purchased Enzyme Research Laboratories
T1 sequence (P00748 373-615 limits assumed): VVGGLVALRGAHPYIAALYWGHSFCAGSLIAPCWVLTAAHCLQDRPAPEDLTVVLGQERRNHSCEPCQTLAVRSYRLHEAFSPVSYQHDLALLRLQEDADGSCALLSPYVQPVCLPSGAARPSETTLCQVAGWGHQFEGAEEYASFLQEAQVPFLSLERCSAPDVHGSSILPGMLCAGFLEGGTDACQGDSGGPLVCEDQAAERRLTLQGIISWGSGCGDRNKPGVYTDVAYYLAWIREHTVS
Briefly: Factor XIIa inhibitory activity in vitro (fluorogenic substrate H-DPro-Phe-Arg-AFC). It is filed as biochemical. The conditions noted are these: 25° C., class symbols, read-out: Human FXIIa IC50. In outline:
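Enzyme incubated at 25° C with fluorogenic substrate H-DPro-Phe-Arg-AFC and a range of compound concentrations. Residual activity taken as initial reaction rate from […], giving IC50.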
Turning to `CC(C)c1cc(C(=O)N[C@@H](Cc2ccc(F)c(F)c2)C(=O)NCc2ccc3c(N)nccc3c2)nc2ncnn12` [Example 0.64, (S)—N-(1-(((1-Aminoisoquinolin-6-yl)methyl)amino)-3-(3,4-difluorophenyl)-1-oxopropan-2-yl)-7-isopropyl-[1,2,4]triazolo[1,5-a]pyrimidine-5-carboxamide], the half-inhibitory concentration (IC50) lay within 0.28 to 1 µM. Still for that read-out and setting: the result for `CC(C)n1cc(C(=O)N[C@@H](Cc2ccc(F)c(F)c2)C(=O)NCc2ccc3c(N)nccc3c2)ccc1=O` [Example 0.94] reads 1 to 3 µM; that for `CC(C)Oc1cc(C(=O)N[C@@H](Cc2ccc(F)c(F)c2)C(=O)NCc2ccc3c(N)nccc3c2)ccn1` [Example 0.95], 10 to 40 µM; that for `CC(C)n1ccc(C(=O)N[C@@H](Cc2ccc(F)c(F)c2)C(=O)NCc2ccc3c(N)nccc3c2)cc1=O` [Example 0.96], 3 to 10 µM. Still for that read-out and setting: the result for `CC(C)c1cc(C(=O)N[C@@H](Cc2ccc(F)c(F)c2)C(=O)NCc2ccc3c(N)nccc3c2)cnn1` [Example 0.97] reads 1 to 3 µM; that for `CN(C)[C@H](CCc1ccccc1)C(=O)NCC(=O)NCc1ccc2c(N)nccc2c1` [Example 18.104], 1 to 3 µM; that for `COc1ccc(OCCC(=O)N[C@@H](Cc2ccc(F)c(F)c2)C(=O)NCc2ccc3c(N)nccc3c2)cc1` [Example 20.01], 10 to 40 µM.

In the case of `Nc1nccc2cc(CNC(=O)[C@H](Cc3ccc(F)c(F)c3)NC(=O)COc3cccnc3)ccc12` [Example 20.02], the IC50 lay within 10 to 40 µM. Turning to `Cc1ccnn1CCC(=O)N[C@@H](Cc1ccc(F)c(F)c1)C(=O)NCc1ccc2c(N)nccc2c1` [Example 20.03], the IC50 fell in the range of 10 to 40 µM. The same measure, in the same setting: the result for `CCOCCC(=O)N[C@@H](Cc1ccc(F)c(F)c1)C(=O)NCc1ccc2c(N)nccc2c1` [Example 20.04] reads 10 to 40 µM.

With `Nc1nccc2cc(CNC(=O)[C@H](Cc3ccc(F)c(F)c3)NC(=O)CCn3cnc4ccccc43)ccc12` [Example 20.05], the IC50 is 10 to 40 µM. Same read-out and setting: the result for `Cc1nc2ccccc2n1CCC(=O)N[C@@H](Cc1ccc(F)c(F)c1)C(=O)NCc1ccc2c(N)nccc2c1` [Example 20.06] reads 10 to 40 µM; that for `Nc1nccc2cc(CNC(=O)[C@H](Cc3ccc(F)c(F)c3)NC(=O)CCn3cncn3)ccc12` [Example 20.07], 10 to 40 µM; that for `Cc1nn(C)c(C)c1CCC(=O)N[C@@H](Cc1ccc(F)c(F)c1)C(=O)NCc1ccc2c(N)nccc2c1` [Example 20.08], 10 to 40 µM.

Regarding `Nc1nccc2cc(CNC(=O)[C@H](Cc3ccc(F)c(F)c3)NC(=O)CCNC(=O)c3ccc(F)cc3)ccc12` [Example 20.09], the IC50 lay in the range of 10 to 40 µM. As to `Nc1nccc2cc(CNC(=O)[C@H](Cc3ccc(F)c(F)c3)NC(=O)CCc3[nH]nc4c3CCCC4)ccc12` [Example 20.10], the IC50 lay in the range of 10 to 40 µM. Regarding `Nc1nccc2cc(CNC(=O)[C@@H](N)Cc3csc4ccccc34)ccc12` [Example 24.01], the IC50 lay within 10 to 40 µM. The same measure, in the same setting: the result for `Nc1nccc2cc(CNC(=O)[C@@H](N)Cc3cccc(F)c3)ccc12` [Example 24.02] reads 10 to 40 µM. On the same count and under the same terms, under `Nc1nccc2cc(CNC(=O)C[C@@H](N)Cc3ccccc3)ccc12` [Example 24.03] stands 10 to 40 µM; under `Cc1ccc2cc(C(=O)N3CCC(C(=O)NCc4ccc5c(N)nccc5c4)C3)ccc2n1` (centres unmarked) [Example 32.01], 10 to 40 µM. Same read-out and setting: under `C[C@@H]1CCC[C@H](C)N1CC(=O)N1CCC[C@H]1C(=O)NCc1ccc2c(N)nccc2c1` [Example 32.02] stands 10 to 40 µM; under `C[C@@H]1CCC[C@H](C)N1CC(=O)N1CCCC[C@H]1C(=O)NCc1ccc2c(N)nccc2c1` [Example 32.03], 1 to 3 µM. For the compound `C[C@@H]1CCC[C@H](C)N1CC(=O)N1c2ccccc2C[C@H]1C(=O)NCc1ccc2c(N)nccc2c1` [Example 32.04], the IC50 was in the range of 10 to 40 µM. Same read-out and setting: the result for `C[C@@H]1CCC[C@H](C)N1CC(=O)N1CC[C@H](C(=O)NCc2ccc3c(N)nccc3c2)C1` [Example 32.06] reads 10 to 40 µM; that for `C[C@@H]1CCC[C@H](C)N1CC(=O)N1CC[C@@H](C(=O)NCc2ccc3c(N)nccc3c2)C1` [Example 32.07], 10 to 40 µM; that for `C[C@@H]1CCC[C@H](C)N1CC(=O)N1CCC[C@@H](C(=O)NCc2ccc3c(N)nccc3c2)C1` [Example 32.08], 1 to 3 µM. Still for that read-out and setting: under `C[C@@H]1CCC[C@H](C)N1CC(=O)N1c2ccccc2CC[C@H]1C(=O)NCc1ccc2c(N)nccc2c1` [Example 32.09] stands 10 to 40 µM. On to `COc1ccc(CNC(=O)[C@H](Cc2ccc(F)c(F)c2)NC(=O)CN2[C@H](C)CCC[C@@H]2C)cc1Cl` [Example 34.01], for which the IC50 fell in the range of 10 to 40 µM.

In the case of `C[C@@H]1CCC[C@H](C)N1CC(=O)N[C@@H](Cc1ccc(F)c(F)c1)C(=O)NC1CCN(c2ccncc2)CC1` [Example 34.02], the IC50 was 3 to 10 µM. On the same count and under the same terms, under `C[C@@H]1CCC[C@H](C)N1CC(=O)N[C@@H](Cc1ccc(F)c(F)c1)C(=O)NCc1cccc2[nH]ccc12` [Example 34.03] stands 3 to 10 µM. Still for that read-out and setting: the result for `C[C@@H]1CCC[C@H](C)N1CC(=O)N[C@@H](Cc1ccc(F)c(F)c1)C(=O)NCc1ccnc(N)c1` [Example 34.04] reads 10 to 40 µM.

With `C[C@@H]1CCC[C@H](C)N1CC(=O)N[C@@H](Cc1ccc(F)c(F)c1)C(=O)NCc1ccc2[nH]ccc2c1` [Example 34.05], the IC50 fell in the range of 10 to 40 µM.

For the compound `C[C@@H]1CCC[C@H](C)N1CC(=O)N[C@@H](Cc1ccc(F)c(F)c1)C(=O)NCc1cnc2[nH]ccc2c1` [Example 34.06], the IC50 was in the range of 3 to 10 µM. Same read-out and setting: under `C[C@@H]1CCC[C@H](C)N1CC(=O)N[C@@H](Cc1ccc(F)c(F)c1)C(=O)NCc1ccc2[nH]ncc2c1` [Example 34.07] stands 10 to 40 µM; under `C[C@@H]1CCC[C@H](C)N1CC(=O)N[C@@H](Cc1ccc(F)c(F)c1)C(=O)NCc1ccc2c(cnn2C)c1` [Example 34.08], 10 to 40 µM. The same measure, in the same setting: the result for `CC1CCCC(C)N1CC(=O)NCCC(=O)NCc1ccc2c(N)nccc2c1` (centres unmarked) [Example 39.01] reads 10 to 40 µM; that for `C[C@H](NC(=O)CN1[C@H](C)CCC[C@@H]1C)C(=O)NCc1ccc2c(N)nccc2c1` [Example 39.02], 3 to 10 µM; that for `C[C@@H]1CCC[C@H](C)N1CC(=O)NCC(=O)NCc1ccc2c(N)nccc2c1` [Example 39.03], 10 to 40 µM. Still for that read-out and setting: the result for `C[C@@H]1CCC[C@H](C)N1CC(=O)N[C@H](CC(=O)NCc1ccc2c(N)nccc2c1)Cc1ccccc1` [Example 39.04] reads 10 to 40 µM; that for `CC(OCc1ccccc1)[C@H](NC(=O)CN1[C@H](C)CCC[C@@H]1C)C(=O)NCc1ccc2c(N)nccc2c1` (some centres unmarked) [Example 39.05], 3 to 10 µM; that for `CC(O)[C@H](NC(=O)CN1[C@H](C)CCC[C@@H]1C)C(=O)NCc1ccc2c(N)nccc2c1` (stereo partly drawn) [Example 39.06, (2S)—N-[(1-Aminoisoquinolin-6-yl)methyl]-2-{2-[(2R,6S)-2,6-dimethylpiperidin-1-yl]acetamido}-3-hydroxybutanamide], 10 to 40 µM. Regarding `C[C@@H]1CCC[C@H](C)N1C(=O)N[C@H](CC(=O)NCc1ccc2c(N)nccc2c1)Cc1ccccc1` [Example 39.07], the IC50 fell in the range of 10 to 40 µM. In the case of `C[C@@H]1CCC[C@H](C)N1CC(=O)NC(C)(C)C(=O)NCc1ccc2c(N)nccc2c1` [Example 39.08], the IC50 is 10 to 40 µM. Turning to `CC(C)N1CCC[C@@H]1C(=O)N[C@@H](Cc1ccc(F)c(F)c1)C(=O)NCc1ccc2c(N)nccc2c1` [Example 44.01], the IC50 lay in the range of 0.28 to 1 µM.

As to `CC(C)N1CCC[C@@H]1C(=O)N[C@@H](Cc1ccc(F)c(F)c1)C(=O)NC1CCN(c2ccncc2)CC1` [Example 44.02], the IC50 was 10 to 40 µM. On to `CC(C)N1CCC[C@@H]1C(=O)N[C@@H](Cc1ccc(F)c(F)c1)C(=O)NCc1cccc2[nH]ccc12` [Example 44.03], for which the half-maximal inhibitory concentration (IC50) was 10 to 40 µM. Still for that read-out and setting: under `CC(C)N1CCC[C@@H]1C(=O)N[C@@H](Cc1ccc(F)c(F)c1)C(=O)NCc1cnc2[nH]ccc2c1` [Example 44.04] stands 10 to 40 µM; under `CC(C)N1CCC[C@@H]1C(=O)N[C@@H](Cc1ccc(F)c(F)c1)C(=O)NCc1ccc2[nH]ncc2c1` [Example 44.05], 10 to 40 µM. Same read-out and setting: the result for `CC(C)N1CCC[C@@H]1C(=O)N[C@@H](Cc1ccc(F)c(F)c1)C(=O)NCc1ccc2c(cnn2C)c1` [Example 44.06] reads 10 to 40 µM; that for `CCCS(=O)(=O)N[C@@H](Cc1ccc(F)c(F)c1)C(=O)NCc1ccc2c(N)nccc2c1` [Example 55.01], 10 to 40 µM; that for `CS(=O)(=O)N[C@@H](Cc1ccc(F)c(F)c1)C(=O)NCc1ccc2c(N)nccc2c1` [Example 55.02], 10 to 40 µM. As to `N#Cc1ccccc1CN[C@@H](Cc1ccc(F)c(F)c1)C(=O)NCc1ccc2c(N)nccc2c1` [Example 55.03], the IC50 lay in the range of 10 to 40 µM. On the same count and under the same terms, the result for `N#Cc1ccc(CS(=O)(=O)N[C@@H](Cc2ccc(F)c(F)c2)C(=O)NCc2ccc3c(N)nccc3c2)cc1` [Example 55.04] reads 10 to 40 µM; that for `Cc1ccc(C)c(S(=O)(=O)NCC(=O)N[C@@H](Cc2ccc(F)c(F)c2)C(=O)NCc2ccc3c(N)nccc3c2)c1` [Example 55.05], 1 to 3 µM.

Another experiment deals with T2, Human FXIa (Homo sapiens, UniProt P03951).
T2 construct: Human FXIa (Enzyme Research Laboratories) was incubated; purchased Enzyme Research Laboratories
T2 sequence (P03951 388-625 limits assumed): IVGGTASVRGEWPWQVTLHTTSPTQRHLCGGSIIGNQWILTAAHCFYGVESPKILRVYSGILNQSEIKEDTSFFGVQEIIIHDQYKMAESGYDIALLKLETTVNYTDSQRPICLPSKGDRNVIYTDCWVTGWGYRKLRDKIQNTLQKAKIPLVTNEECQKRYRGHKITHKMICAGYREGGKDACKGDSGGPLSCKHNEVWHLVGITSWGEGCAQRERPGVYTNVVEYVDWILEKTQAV
T2 sequence (P03951 19-387 partner limits assumed): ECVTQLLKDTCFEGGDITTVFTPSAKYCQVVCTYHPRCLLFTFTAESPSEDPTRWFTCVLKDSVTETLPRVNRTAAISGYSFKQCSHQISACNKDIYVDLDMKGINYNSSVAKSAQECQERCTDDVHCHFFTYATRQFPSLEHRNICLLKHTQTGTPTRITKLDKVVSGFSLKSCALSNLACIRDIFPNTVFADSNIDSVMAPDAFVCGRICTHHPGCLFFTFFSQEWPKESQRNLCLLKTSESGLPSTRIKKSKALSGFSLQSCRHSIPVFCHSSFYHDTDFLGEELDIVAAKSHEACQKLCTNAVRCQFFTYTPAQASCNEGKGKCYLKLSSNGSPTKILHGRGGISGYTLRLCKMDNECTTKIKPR
In words: FXIa inhibitory activity in vitro (fluorogenic substrate Z-Gly-Pro-Arg-AFC), selectivity. Conditions: category scale, 25° C. Type of experiment: biochemical. The protocol:
Determination of the % Inhibition for FXIa
Human FXIa (Enzyme Research Laboratories) was incubated at 25° C. with the fluorogenic substrate Z-Gly-Pro-Arg-AFC and various concentrations of the test compound. Residual enzyme activity (initial rate of reaction) was determined by measuring the change in fluorescence at 410 nm and the IC50 value for the test compound was determined.
`CC(C)c1cc(C(=O)N[C@@H](Cc2ccc(F)c(F)c2)C(=O)NCc2ccc3c(N)nccc3c2)nc2ncnn12` [Example 0.64, (S)—N-(1-(((1-Aminoisoquinolin-6-yl)methyl)amino)-3-(3,4-difluorophenyl)-1-oxopropan-2-yl)-7-isopropyl-[1,2,4]triazolo[1,5-a]pyrimidine-5-carboxamide] had an IC50 greater than 40 µM. Same read-out and setting: the result for `CC(C)n1cc(C(=O)N[C@@H](Cc2ccc(F)c(F)c2)C(=O)NCc2ccc3c(N)nccc3c2)ccc1=O` [Example 0.94] reads greater than 40 µM. Still for that read-out and setting: under `CC(C)Oc1cc(C(=O)N[C@@H](Cc2ccc(F)c(F)c2)C(=O)NCc2ccc3c(N)nccc3c2)ccn1` [Example 0.95] stands greater than 40 µM; under `CC(C)n1ccc(C(=O)N[C@@H](Cc2ccc(F)c(F)c2)C(=O)NCc2ccc3c(N)nccc3c2)cc1=O` [Example 0.96], greater than 40 µM; under `CC(C)c1cc(C(=O)N[C@@H](Cc2ccc(F)c(F)c2)C(=O)NCc2ccc3c(N)nccc3c2)cnn1` [Example 0.97], greater than 40 µM.
